Assays:
MMP-9 [1] = experiment: Substrate phage display with NGS: relative probability (RP) of P3-P1' tetramer clusters; format: biochemical, human; details: MMP9; RP of the substrate's P3-P1' tetramer, substrate phage display with NGS;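 note: ratio of tetramer probability after protease selection to that in naive phage library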
MMP-2 = biological target: T1, MMP-2 (Homo sapiens, UniProt P08253); experiment: K(obs) of individual phage substrates (set of 1369); format: biochemical; details: MMP2; individual phage substrate from the set of 1369 peptides; hyphen in the sequence marks the cleavage position
T1 sequence (P08253 110-660): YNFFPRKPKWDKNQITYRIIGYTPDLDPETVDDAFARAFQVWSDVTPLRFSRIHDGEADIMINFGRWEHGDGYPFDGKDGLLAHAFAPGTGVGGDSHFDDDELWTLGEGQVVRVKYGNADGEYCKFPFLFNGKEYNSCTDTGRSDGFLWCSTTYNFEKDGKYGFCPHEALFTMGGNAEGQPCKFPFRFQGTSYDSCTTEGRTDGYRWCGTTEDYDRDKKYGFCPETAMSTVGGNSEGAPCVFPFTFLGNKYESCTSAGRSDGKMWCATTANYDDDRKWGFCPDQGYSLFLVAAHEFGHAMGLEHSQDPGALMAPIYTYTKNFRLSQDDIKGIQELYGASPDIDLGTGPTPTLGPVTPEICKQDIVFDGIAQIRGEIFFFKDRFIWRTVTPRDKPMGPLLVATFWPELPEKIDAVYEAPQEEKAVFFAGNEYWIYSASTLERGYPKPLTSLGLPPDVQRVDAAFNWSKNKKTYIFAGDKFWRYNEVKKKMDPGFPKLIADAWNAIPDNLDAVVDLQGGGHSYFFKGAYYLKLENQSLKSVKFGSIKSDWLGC

MMP-9 [2] = biological target: MMP-9 (Homo sapiens, UniProt P14780); experiment: as above; format: biochemical; details: MMP9; individual phage substrate of the set of 1369 peptides; dash in sequence marks cleavage position
Chain of MMP-9 (Homo sapiens, UniProt P14780) (P14780 94-707): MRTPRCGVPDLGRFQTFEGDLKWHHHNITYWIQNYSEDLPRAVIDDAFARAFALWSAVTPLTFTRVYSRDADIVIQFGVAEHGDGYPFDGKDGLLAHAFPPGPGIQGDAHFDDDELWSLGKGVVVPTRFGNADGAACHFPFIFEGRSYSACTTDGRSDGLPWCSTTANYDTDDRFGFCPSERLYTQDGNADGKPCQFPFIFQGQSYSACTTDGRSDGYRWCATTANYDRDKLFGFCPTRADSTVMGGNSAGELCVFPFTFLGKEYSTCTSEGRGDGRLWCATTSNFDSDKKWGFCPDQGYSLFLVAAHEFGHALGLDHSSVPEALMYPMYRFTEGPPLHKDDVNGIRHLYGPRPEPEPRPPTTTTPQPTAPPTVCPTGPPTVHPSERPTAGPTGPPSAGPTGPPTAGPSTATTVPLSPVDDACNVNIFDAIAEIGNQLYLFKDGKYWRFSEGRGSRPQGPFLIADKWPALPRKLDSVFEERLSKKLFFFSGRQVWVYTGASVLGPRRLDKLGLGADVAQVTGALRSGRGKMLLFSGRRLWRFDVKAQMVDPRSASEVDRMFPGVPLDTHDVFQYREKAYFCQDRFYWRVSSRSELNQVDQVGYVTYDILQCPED

Substance | relative probability (RP) (MMP-9 [1]) | Kobs (MMP-2) [M⁻¹ s⁻¹] | Kobs (MMP-9 [2]) [M⁻¹ s⁻¹]
GRPAQ-MKTAS | 38.7952 | 3850.82 | 5667.28
KSPTG-LTASG | 39.8897 | 10866.7 | 8321.48
SQLGL-LTASG | 4.41 | 12792.1 | 142.481
SGPKF-LVMTA | 42.7484 | 1981.53 | 12792.1
PSLGQ-LTASG | 2.507 | 12792.1 | 56.119
SGVRG-MHGTA | 38.9419 | 1610.61 | 5667.28
GRPAG-VKTAS | 31.0803 | 12792.1 | 3079.62
VFPQG-MTASG | 46.1377 | 2476.66 | 8321.48
GGIAA-MRTAS | 10.5791 | 1071.29 | 386.839
SKPWK-LTASG | 43.1496 | 1561.44 | 12792.1
YKPVY-YTASG | 30.5191 | 12792.1 | 12792.1
HVPRQ-VTASG | 25.107 | 27.918 | 8941.32
PSLAE-LTASG | 0.4438 | 8941.32 | 654.784
QRWFA-LTASG | 14.7831 | 2038.8 | 6688.74
SGPRT-LVVTA | 42.2705 | 12792.1 | 12792.1
NIPTR-LTASG | 15.5872 | 12792.1 | 1327.88
RLPIN-LTASG | 44.8884 | 12792.1 | 12792.1
LAPRY-WTASG | 27.5973 | 12792.1 | 12792.1
RAPLP-VTASG | 40.8342 | 12792.1 | 12792.1
TGPKL-ITASG | 25.2703 | 1071.29 | 6396.07
GWPSE-LRTAS | 41.3266 | 12792.1 | 12792.1
TQPSP-FTASG | 37.3217 | 12792.1 | 9740.44
IFPAN-HTASG | 10.2001 | 12792.1 | 5090.5
KRLAF-LTASG | 0.6348 | 12792.1 | 912.511

Substance | relative probability (RP) (MMP-9 [1]) | Kobs (MMP-2) [M⁻¹ s⁻¹] | Kobs (MMP-9 [2]) [M⁻¹ s⁻¹]
RDLGF-LTASG | 3.437 | 12792.1 | 0
HVVAK-MTASG | 0.5992 | 6396.07 | 1981.53
SGPRL-YIGTA | 32.3351 | 5667.28 | 12792.1
GVPRY-LRTAS | 44.5304 | 12792.1 | 12792.1
MSPRK-FTASG | 2.647 | 12792.1 | 12792.1
PTPRS-YTASG | 44.546 | 7386.83 | 12792.1
GRPVN-LTTAS | 46.0636 | 12792.1 | 12792.1
RLVNW-MTASG | 19.0749 | 3850.82 | 2687.73
GEPSA-YRTAS | 46.6524 | 12792.1 | 12792.1
SDVRF-LTASG | 26.3541 | 9740.44 | 5889.62
NRPSW-VTASG | 29.0809 | 9740.44 | 12792.1
RMPRQ-VTASG | 25.107 | 1196.62 | 1981.53
SGPRF-LLDTA | 42.4535 | 5889.62 | 7386.83
GVPKN-QMTAS | 35.1259 | 4205.91 | 7815.03
RVVAN-LTASG | 32.1971 | 12792.1 | 4922.1
GVLRN-LITAS | 37.603 | 12792.1 | 6688.74
NSPMS-LTASG | 47.1282 | 12792.1 | 12792.1
GHIAW-FTASG | 7.9655 | 12792.1 | 1513.13
FHPSR-FTASG | 21.0555 | 12792.1 | 2916.17
RKLAF-LTASG | 0.6348 | 12792.1 | 726.013
PCPTG-LTASG | 39.8897 | 8321.48 | 3253.29
SGPVH-MWNTA | 35.975 | 1154.21 | 1154.21
KAPAH-LTASG | 44.1453 | 12792.1 | 12792.1
FKAVA-LTASG | 32.1946 | 12792.1 | 12792.1

Substance | relative probability (RP) (MMP-9 [1]) | Kobs (MMP-2) [M⁻¹ s⁻¹] | Kobs (MMP-9 [2]) [M⁻¹ s⁻¹]
SGPAS-LLNTA | 46.2982 | 12792.1 | 9740.44
SGPRS-HRVTA | 23.1314 | 3637.04 | 3253.29
SLPLL-LTASG | 32.5638 | 2996.69 | 12792.1
DSPLS-LTASG | 48.1735 | 12792.1 | 12792.1
GYPRG-LGTAS | 47.3825 | 12792.1 | 12792.1
YGPRA-ITASG | 47.8426 | 12792.1 | 12792.1
TPPSS-LTASG | 46.2595 | 12792.1 | 12792.1
FEPQR-MTASG | 31.7168 | 690.17 | 7815.03
RLPKL-LTASG | 35.7561 | 1816.46 | 6688.74
RLPYP-LTASG | 48.6636 | 12792.1 | 12792.1
RQPFL-LTASG | 33.1122 | 1154.21 | 12792.1
HKIAL-LTASG | 0.8483 | 7386.83 | 56.119
VMPSG-FTASG | 36.6478 | 8321.48 | 12792.1
FLPRM-LTASG | 42.2884 | 12792.1 | 12792.1
KVLSA-VTASG | 0.4242 | 12792.1 | 12792.1
KFPWN-YTASG | 48.0713 | 2097.28 | 12792.1
LKVMN-YTASG | 29.3662 | 3637.04 | 12792.1
SQPMA-YTASG | 49.7335 | 12792.1 | 12792.1
SGPKL-LYGTA | 35.7561 | 4205.91 | 12792.1
SRPRT-LTASG | 42.2705 | 12792.1 | 12792.1
VVPNN-LTASG | 38.7188 | 12792.1 | 12792.1
SGWRA-YTGTA | 29.3104 | 2476.66 | 9740.44

From PMC7932537, “Quantitative profiling of protease specificity” (PLoS Computational Biology, 2021)
